± gives the standard deviation of the averaged measurements.
Legend:
Details in all cases: 72 h
[1] = tested on: HepG2; experiment: drug sensitivity score (DSS) for viability; higher = more toxic; extreme values may be limits of the assay
[2] = tested on: Caco-2; experiment: as above
[3] = tested on: U2OS; experiment: as above
[4] = tested on: Calu-3; experiment: as above
[5] = tested on: Vero E6; experiment: as above
[6] = tested on: HepG2; experiment: cell viability relative to DMSO; higher = less toxic
[7] = tested on: Caco-2; experiment: as above
[8] = tested on: U2OS; experiment: as above
[9] = tested on: Calu-3; experiment: as above
[10] = tested on: Vero E6; experiment: as above
[11] = tested on: HepG2; experiment: relative viability EC50 (midpoint between 100% and the lowest measured viability); higher = less toxic
[12] = tested on: Caco-2; experiment: as above
[13] = tested on: U2OS; experiment: as above
[14] = tested on: Calu-3; experiment: as above
[15] = tested on: Vero E6; experiment: as above

| SMILES | drug sensitivity score [1] | drug sensitivity score [2] | drug sensitivity score [3] | drug sensitivity score [4] | drug sensitivity score [5] | cell viability ([6]; 1 nM) [%] | cell viability ([6]; 10 nM) [%] | cell viability ([6]; 100 nM) [%] | cell viability ([6]; 1000 nM) [%] | cell viability ([6]; 10000 nM) [%] | cell viability ([7]; 1 nM) [%] | cell viability ([7]; 10 nM) [%] | cell viability ([7]; 100 nM) [%] | cell viability ([7]; 1000 nM) [%] | cell viability ([7]; 10000 nM) [%] | cell viability ([8]; 1 nM) [%] | cell viability ([8]; 10 nM) [%] | cell viability ([8]; 100 nM) [%] | cell viability ([8]; 1000 nM) [%] | cell viability ([8]; 10000 nM) [%] | cell viability ([9]; 1 nM) [%] | cell viability ([9]; 10 nM) [%] | cell viability ([9]; 100 nM) [%] | cell viability ([9]; 1000 nM) [%] | cell viability ([9]; 10000 nM) [%] | cell viability ([10]; 1 nM) [%] | cell viability ([10]; 10 nM) [%] | cell viability ([10]; 100 nM) [%] | cell viability ([10]; 1000 nM) [%] | cell viability ([10]; 10000 nM) [%] | relative viability EC50 [11] [µM] | relative viability EC50 [12] [µM] | relative viability EC50 [13] [µM] | relative viability EC50 [14] [µM] | relative viability EC50 [15] [µM] |
| --- | --- | --- | --- | --- | --- | --- | --- | --- | --- | --- | --- | --- | --- | --- | --- | --- | --- | --- | --- | --- | --- | --- | --- | --- | --- | --- | --- | --- | --- | --- | --- | --- | --- | --- | --- |
| Cc1cnc(C(=O)O)c[n+]1[O-] [acipimox] | 0 | 0 | 0 | 0 | 0 | 87.2 | 101 | 96.6 | 89.5 | 92.3 | 94.3 | 100 | 95.4 | 93.4 | 87.2 | 98.6 | 101 | 101 | 98.5 | 97 | 107 | 102 | 108 | 94.7 | 97.1 | 98.6 | 103 | 102 | 95.7 | 101 | > 10 | > 10 | > 10 | > 10 | > 10 |
| CN(C)C/C=C/C(=O)Nc1cc2c(Nc3ccc(F)c(Cl)c3)ncnc2cc1O[C@H]1CCOC1 [afatinib] | 5 | 7.2 | 6.2 | 27.9 | 14.2 | 117 | 96.1 | 104 | 93.7 | 27.6 | 109 | 90.4 | 83 | 73.4 | 46.1 | 95.8 | 100 | 93.2 | 91.1 | 13.6 | 88.7 | 57.8 | 32.1 | 28.8 | 9.1 | 101 | 93.7 | 66 | 51.7 | 3.8 | 2.45 | 0.496 | 2.32 | 0.0181 | 0.465 |
| Cc1ccccc1-n1c(CF)nc2ccc(N)cc2c1=O [afloqualone] | 0 | 0 | 0 | 0 | 0 | 100 | 94 | 100 | 83.3 | 93.7 | 98 | 102 | 104 | 101 | 110 | 98.3 | 97.9 | 102 | 98.6 | 102 | 98.1 | 96.8 | 101 | 108 | 109 | 105 | 98.2 | 100 | 102 | 92.4 | > 10 | > 10 | > 10 | > 10 | > 10 |
| CC(=O)OCC(=O)[C@H]1CC[C@H]2[C@@H]3CC[C@H]4C[C@H](O)CC[C@]4(C)[C@H]3C(=O)C[C@]12C [alfadolone-acetate] | 0 | 0 | 0 | 0 | 0 | 98.7 | 101 | 109 | 104 | 102 | 99.9 | 102 | 102 | 101 | 100 | 105 | 97.7 | 98.7 | 103 | 100 | 99.9 | 101 | 99.8 | 111 | 91.3 | 106 | 104 | 98.3 | 104 | 97.3 | > 10 | > 10 | > 10 | > 10 | > 10 |
| CC(=O)[C@H]1CC[C@H]2[C@@H]3CC[C@H]4C[C@H](O)CC[C@]4(C)[C@H]3CC[C@]12C [allopregnanolone] | 0 | 0 | 0 | 0 | 0 | 98.9 ± 6.8 | 92.4 ± 6.1 | 97.6 ± 7.2 | 99 ± 2.6 | 92 ± 3.5 | 98 ± 0.85 | 96.6 ± 1.1 | 96.2 ± 8.3 | 100 ± 3 | 103 ± 7.4 | 98.8 ± 4.2 | 99.65 ± 0.92 | 98.55 ± 0.35 | 100 ± 5 | 97.7 ± 0.28 | 104 ± 5.9 | 102 ± 5.4 | 95.05 ± 0.64 | 104 ± 5.8 | 103 ± 3.8 | 95.5 ± 3.5 | 101 ± 4.5 | 95 ± 3.5 | 97.9 ± 4.7 | 98.8 ± 4.5 | > 10 | > 10 | > 10 | > 10 | > 10 |
| COC(c1ccccc1)(c1ccccc1)[C@H](Oc1nc(C)cc(C)n1)C(=O)O [ambrisentan] | 0 | 0 | 0 | 2.7 | 0 | 102 | 98.4 | 95.3 | 107 | 98.3 | 104 | 98.2 | 95.1 | 97.1 | 90.5 | 101 | 101 | 94.2 | 99.5 | 95.7 | 105 | 101 | 84.6 | 88.9 | 97 | 99.9 | 99.1 | 94.4 | 97.4 | 102 | > 10 | > 10 | > 10 | > 10 | > 10 |
| Cc1c(N(C)C)c(=O)n(-c2ccccc2)n1C [amidopyrine] | 0 | 0.1 | 0 | 0 | 0 | 94.7 | 92.2 | 112 | 106 | 99.7 | 102 | 106 | 97.9 | 110 | 84 | 95.1 | 101 | 93.2 | 99.2 | 96.4 | 105 | 109 | 99.5 | 112 | 103 | 97.8 | 96.4 | 104 | 97.7 | 89.2 | > 10 | > 10 | > 10 | > 10 | > 10 |
| CC(CC(C(N)=O)(c1ccccc1)c1ccccc1)N(C)C (stereo not given) [aminopentamide] | 0 | 0 | 0 | 0 | 0 | 100 | 99.6 | 95.2 | 103 | 104 | 95.3 | 90.2 | 97.1 | 92.8 | 98 | 95.8 | 94.9 | 101 | 101 | 101 | 110 | 97.8 | 104 | 92.2 | 98.9 | 95.9 | 96.1 | 91.5 | 98.3 | 104 | > 10 | > 10 | > 10 | > 10 | > 10 |
| CC(C)CN(C[C@@H](O)[C@H](Cc1ccccc1)NC(=O)O[C@H]1CCOC1)S(=O)(=O)c1ccc(N)cc1 [amprenavir] | 0 | 0.6 | 0 | 0 | 0 | 114 | 88.9 | 92.7 | 96.5 | 87.7 | 103 | 100 | 106 | 87.2 | 87.7 | 106 | 97.8 | 96.5 | 98.6 | 101 | 101 | 102 | 99.3 | 97.7 | 107 | 110 | 102 | 93.9 | 101 | 93.4 | > 10 | > 10 | > 10 | > 10 | > 10 |
| CCCc1ncc(C[n+]2ccccc2C)c(N)n1 [amprolium] | 0 | 0.9 | 0 | 0 | 0 | 96.4 | 103 | 89.2 | 97.1 | 92.1 | 112 | 94.9 | 88.5 | 90.5 | 99.9 | 101 | 97.2 | 102 | 100 | 104 | 104 | 97.2 | 99.5 | 101 | 107 | 100 | 108 | 92.8 | 112 | 102 | > 10 | > 10 | > 10 | > 10 | > 10 |
| CCO[C@H]1O[C@@H]2O[C@@]3(C)CC[C@H]4[C@H](C)CC[C@@H]([C@H]1C)[C@@]24OO3 [artemotil] | 0.2 | 0 | 1 | 0 | 0 | 107 | 100 | 104 | 89.1 | 94.5 | 92.1 | 101 | 86.6 | 94.5 | 91.5 | 98.1 | 100 | 95.4 | 97.2 | 79.1 | 94.2 | 109 | 95.4 | 109 | 104 | 89.7 | 95.1 | 95.8 | 91.5 | 98 | > 10 | > 10 | > 10 | > 10 | > 10 |
| CC(=O)Oc1ccccc1C(=O)O [aspirin] | 0 | 3.8 | 0 | 0 | 0 | 95.2 | 100 | 93.8 | 104 | 109 | 92.4 | 89.3 | 81 | 80 | 89.7 | 96.5 | 93.5 | 104 | 98.3 | 103 | 102 | 90.1 | 94.1 | 92.6 | 101 | 90.7 | 96.7 | 90 | 96.2 | 108 | > 10 | > 10 | > 10 | > 10 | > 10 |
| CC(C)C(=O)OC[C@@]1(N=[N+]=[N-])O[C@@H](n2ccc(N)nc2=O)[C@H](OC(=O)C(C)C)[C@@H]1OC(=O)C(C)C [balapiravir] | 0 | 0 | 0 | 0 | 0 | 95.6 | 102 | 92.6 | 102 | 92.4 | 103 | 87 | 100 | 98.7 | 88.9 | 99.6 | 94.9 | 96 | 95.5 | 94.6 | 99 | 99.1 | 97 | 100 | 102 | 98.6 | 92.8 | 93.4 | 98.4 | 90.7 | > 10 | > 10 | > 10 | > 10 | > 10 |
| CC(C)(O)CC(=O)O [beta-hydroxy-beta-methylbutyrate] | 0 | 0 | 0 | 0 | 0 | 91.8 | 94.3 | 101 | 104 | 93.3 | 102 | 92.2 | 99.4 | 92.6 | 97.2 | 105 | 99.5 | 98.1 | 95.9 | 99.5 | 98.7 | 100 | 105 | 102 | 113 | 106 | 108 | 101 | 99.5 | 100 | > 10 | > 10 | > 10 | > 10 | > 10 |

Source: the supplement of paper PMC13380429
